Test results: patent publication US20130109861A1, “TELOMERASE INHIBITORS AND A METHOD FOR THE PREPARATION THEREOF” (GOSUDARSTVENNOE UCHEBNO-NAUCHNOE UCHREZHDENIE KHIMICHESKIJJ …, priority 2010, published 2013)

Key:
[1] = biological target: T1, telomerase (Homo sapiens, UniProt O14746); test: Inhibition of telomerase activity by TRAP-assay (telomeric repeat amplification, extracts of cervical carcinoma cell lines SiHa, C33A, CaSki, HeLa); format: biochemical; details: concentration at which inhibition of telomerase activity is 50%
T1 construct: telomeric repeats added to an oligonucleotide by telomerase in the cell extract; endogenous in cells; host or cells: SiHa, C33A, CaSki and HeLa cervical carcinoma cell extracts (CHAPS lysis)
Protocol: To test the inhibition of telomerase compounds prepared in this way, we used the method of amplification added telomeric repeats (TRAP-analysis). TRAP-analysis is a standard method for determining the activity of telomerase, due to some modification this method could be semi quantitative. The choice of method for detection of telomerase activity was determined by its wide coverage in the worlds literature, almost sensitivity, as well as the availability of equipment and reagents.
Telomeric repeats amplification protocol can be divided into three main steps: primer extension, amplification of the resulting product (s) and detection. In step lengthening telomeric repeats added to an oligonucleotide by telomerase in the cell extract. Telomerase recognizes it as a substrate (TS). In step of amplification of extension products of TS oligonucleotide by telomerase false signals may appear due to amplification of telomeres of chromosomes possibly have contained in the cell extract. To avoid this, the 5′-end of the oligonucleotide TS has no telomeric sequence, which prevents it to contact with telomeres, but is recognized as a telomerase substrate. Since human telomerase adds a series repeats with six nucleotides, the resulting lengthening of TS oligonucleotide by telomerase set of DNA fragments that differ in length synthesized. […]

## C=CCN1C(=O)/C(=C/c2ccccn2)N=C1SCCSC1=N/C(=C\c2ccccn2)C(=O)N1CC=C [Example 3, (5Z,5′Z)-2,2′-(ethan-1,2-diyldisulfanyldiyl)bis(5-(pyridine-2-ylmethylene)-3-allyl-3,5-dihydro-4H-imidazole-4-on)]
other
  melting point: 187 °C
[1]
  IC50: 2 µM
